In patent US20070021415A1, “Pharmaceutical composition for the prevention or treatment of cerebral oedemas” (priority 2005, published 2007):
Read-outs that look alike come from different tables or passages of the source.

Key:
[1] = rat, in vivo; for weight gain (in words): po, 50 mg/kg/day
[2] = tested on: cerebral oedema induced by triethyl tin (TET) in the rat; conditions: in vivo
[3] = tested on: cerebral oedema induced by triethyl tin (TET) chloride in the rat; conditions: administered during the intoxication with tin, measured after 5 days (Linee et al., 1984); cited from earlier work

| Compound | weight gain (in words) [1] | weight of the dried brain ([2]; po) | Variation in percentage ([2]; po, 50 mg/kg/day) | activity in the preventive protocol [3] | also measured |
| --- | --- | --- | --- | --- | --- |
| CC1(c2ccccc2)OC(N)=Nc2ccc(Cl)cc21 (stereo not drawn) [desethyl-etifoxine, 2-amino-6-chloro-4-methyl-4-phenyl-4H-[3,1]benzoxazine] | does not disrupt the weight gain | do not modify this parameter significantly | −0.09% |  | Variation in percentage [2]: +0.39% |
| CCNC1=Nc2ccc(Cl)cc2C(C)(c2ccccc2)O1.Cl (stereo not drawn) [etifoxine, 6-chloro-2-ethylamino-4-methyl-4-phenyl-4H-[3,1]benzoxazine hydrochloride] | does not disrupt weight gain | do not modify this parameter significantly | −0.30% |  | Body weight in grams (mean ± s.e.m.) [1]: 251 ± 4 grams; Variation in percentage ([2]; po, 100 mg/kg/day): −0.07% |
| CC[C@]12CCCN3CCc4c(n(c5ccccc45)[C@@](O)(C(=O)OC)C1)[C@@H]32 [vincamine] |  |  |  | active |  |
| (−)eburnamonine |  |  |  | active |  |
| dihydroergotoxin |  |  |  | active |  |
